Publication PMC8761492 (Life Science Alliance, 2022)
Starred links: 1 amine or outer side, 2 acyl side, 3 side chain; linkers in the order of their positions; H or OH if unused. Positions of bridges follow the written chain, without caps; N, C: chain ends. Non-standard residues stand in square brackets, D forms with d. Residues, ends and D or L forms follow the SMILES beside them. *: point of attachment. X1 = CC[C@H](C)[C@@H](N[*:1])[C@@H](O)CC(=O)O[C@H](C(=O)[C@H](C)C(=O)[*:2])C(C)C; NMeY = CN[C@@H](Cc1ccc(O)cc1)C(=O)O; dNMeL = CN[C@H](CC(C)C)C(=O)O; Pyruvoyl = CC(=O)C(=O)*

Assays:
SARS-CoV-2/WA1 = experiment: SARS-CoV-2 infectivity in HeLa-ACE2 cells (viral NP); format: cell-based; settings: Severe acute respiratory syndrome coronavirus 2, HeLa-ACE2, 48 h
COVID-19 = experiment: APLICOV-PC: mortality, ventilation, ICU admission and oxygen therapy; format: in vivo, human
Protocol: Secondary outcomes included change from baseline of viral load, as evaluated by quantitative PCR via central laboratory on nasopharyngeal exudate or sampled from the lower respiratory tract within 48 h before first administration of plitidepsin and on days 4, 7, 15, and 31, and the percentage of patients requiring oxygen therapy, noninvasive mechanical ventilation, invasive mechanical ventilation and/or intensive care unit admission, and the percentage of patients with a fatal outcome on days 7, 15, and 31.
Analysis for preliminary evidence of efficacy was performed on all patients who had efficacy assessments at baseline and at least one subsequent assessment during treatment.
In regards with subgroup analyses, safety and efficacy outcomes also were assessed by age-group (<65 versus ≥65 yr) and efficacy outcomes were assessed by disease severity at baseline. Safety outcomes were also assessed before and after the implementation of the protocol amendment.

[1] = Day 1 to Day 7, 1.5 mg (N = 14)
[2] = Day 1 to Day 7, 2.0 mg (N = 15)
[3] = Day 1 to Day 7, 2.5 mg (N = 15)
[4] = Day 1 to Day 31, 1.5 mg (N = 14)
[5] = Day 1 to Day 31, 2.0 mg (N = 15)
[6] = Day 1 to Day 31, 2.5 mg (N = 15)
[7] = Day 1 to Day 31, Total (N = 44)
[8] = Day 8 to Day 15, 1.5 mg (N = 14)
[9] = Day 8 to Day 15, 2.0 mg (N = 15)
[10] = Day 8 to Day 15, 2.5 mg (N = 15)
[11] = Day 8 to Day 15, Total (N = 44)
[12] = Day 16 to Day 31, 1.5 mg (N = 14)
[13] = Day 16 to Day 31, 2.0 mg (N = 15)
[14] = Day 16 to Day 31, 2.5 mg (N = 15)
[15] = Day 16 to Day 31, Total (N = 44)
[16] = day 1 to Day 7, Moderate (N=23)

CC[C@H](C)[C@H]1NC(=O)[C@@H](NC(=O)[C@@H](CC(C)C)N(C)C(=O)[C@@H]2CCCN2C(=O)C(C)=O)[C@@H](C)OC(=O)[C@H](Cc2ccc(OC)cc2)N(C)C(=O)[C@@H]2CCCN2C(=O)[C@H](CC(C)C)NC(=O)[C@@H](C)C(=O)[C@H](C(C)C)OC(=O)C[C@@H]1O [Plitidepsin] (Pyruvoyl-P[dNMeL]T[X1]LP[NMeY](Me); ester 3-C)
IC50 (SARS-CoV-2/WA1; read-out: Antiviral IC50): 0.201 nM | IC90 (SARS-CoV-2/WA1; read-out: Antiviral IC90): 0.881 nM | Mortality from Day 1 to Day 31 (COVID-19; 1.5 mg (N = 14)): 1 (7.1) | Mortality from Day 1 to Day 31 (COVID-19; 2.5 mg (N = 15)): 1 (6.7) | Patients requiring invasive mechanical ventilation and/or intensive care unit admission (COVID-19; [1]): 2 (14.3) | Patients requiring noninvasive mechanical ventilation (COVID-19; [1]): 4 (28.6) | Patients requiring invasive mechanical ventilation and/or intensive care unit admission (COVID-19; [2]): 1 (6.7) | Patients requiring noninvasive mechanical ventilation (COVID-19; [2]): 0 | Patients requiring invasive mechanical ventilation and/or intensive care unit admission (COVID-19; [3]): 2 (13.3) | Patients requiring noninvasive mechanical ventilation (COVID-19; [3]): 1 (6.7) | Patients requiring invasive mechanical ventilation and/or intensive care unit admission (COVID-19; Day 1 to Day 7, Total (N = 44)): 5 (11.4) | Patients requiring noninvasive mechanical ventilation (COVID-19; Day 1 to Day 7, Total (N = 44)): 5 (11.4) | Patients requiring invasive mechanical ventilation and/or intensive care unit admission (COVID-19; [4]): 2 (14.3) | Patients requiring noninvasive mechanical ventilation (COVID-19; [4]): 5 (35.7) | Patients requiring oxygen therapy at (COVID-19; [4]): 12 (85.7) | Patients requiring invasive mechanical ventilation and/or intensive care unit admission (COVID-19; [5]): 1 (6.7) | Patients requiring noninvasive mechanical ventilation (COVID-19; [5]): 1 (6.7) | Patients requiring oxygen therapy at (COVID-19; [5]): 12 (80.0) | Patients requiring invasive mechanical ventilation and/or intensive care unit admission (COVID-19; [6]): 3 (20.0) | Patients requiring noninvasive mechanical ventilation (COVID-19; [6]): 2 (13.3) | Patients requiring oxygen therapy at (COVID-19; [6]): 11 (73.3) | Patients requiring invasive mechanical ventilation and/or intensive care unit admission (COVID-19; [7]): 6 (13.6) | Patients requiring noninvasive mechanical ventilation (COVID-19; [7]): 8 (18.2) | Patients requiring oxygen therapy at (COVID-19; [7]): 35 (79.5) | Patients requiring oxygen therapy at (COVID-19; Day 7, 1.5 mg (N=14)): 12 (85.7) | Patients requiring oxygen therapy at (COVID-19; Day 7, 2.0 mg (N = 15)): 12 (80.0) | Patients requiring oxygen therapy at (COVID-19; Day 7, 2.5 mg (N=15)): 11 (73.3) | Patients requiring oxygen therapy at (COVID-19; Day 7, Total (N=44)): 35 (79.5) | Patients requiring invasive mechanical ventilation and/or intensive care unit admission (COVID-19; [8]): 1 (7.1) | Patients requiring noninvasive mechanical ventilation (COVID-19; [8]): 3 (21.4) | Patients requiring invasive mechanical ventilation and/or intensive care unit admission (COVID-19; [9]): 1 (6.7) | Patients requiring noninvasive mechanical ventilation (COVID-19; [9]): 0 | Patients requiring invasive mechanical ventilation and/or intensive care unit admission (COVID-19; [10]): 1 (6.7) | Patients requiring noninvasive mechanical ventilation (COVID-19; [10]): 2 (13.3) | Patients requiring invasive mechanical ventilation and/or intensive care unit admission (COVID-19; [11]): 3 (6.8) | Patients requiring noninvasive mechanical ventilation (COVID-19; [11]): 5 (11.4) | Patients requiring oxygen therapy at (COVID-19; Day 15, 1.5 mg (N=14)): 4 (28.6) | Patients requiring oxygen therapy at (COVID-19; Day 15, 2.0 mg (N = 15)): 1 (6.7) | Patients requiring oxygen therapy at (COVID-19; Day 15, 2.5 mg (N=15)): 4 (26.7) | Patients requiring oxygen therapy at (COVID-19; Day 15, Total (N=44)): 9 (20.5) | Patients requiring invasive mechanical ventilation and/or intensive care unit admission (COVID-19; [12]): 1 (7.1) | Patients requiring noninvasive mechanical ventilation (COVID-19; [12]): 1 (7.1) | Patients requiring invasive mechanical ventilation and/or intensive care unit admission (COVID-19; [13]): 1 (6.7) | Patients requiring noninvasive mechanical ventilation (COVID-19; [13]): 1 (6.7) | Patients requiring invasive mechanical ventilation and/or intensive care unit admission (COVID-19; [14]): 1 (6.7) | Patients requiring noninvasive mechanical ventilation (COVID-19; [14]): 1 (6.7) | Patients requiring invasive mechanical ventilation and/or intensive care unit admission (COVID-19; [15]): 3 (6.8) | Patients requiring noninvasive mechanical ventilation (COVID-19; [15]): 3 (6.8) | Patients requiring oxygen therapy at (COVID-19; Day 31, 1.5 mg (N=14)): 0 | Patients requiring oxygen therapy at (COVID-19; Day 31, 2.0 mg (N = 15)): 2 (13.3) | Patients requiring oxygen therapy at (COVID-19; Day 31, 2.5 mg (N=15)): 1 (6.7) | Patients requiring oxygen therapy at (COVID-19; Day 31, Total (N=44)): 3 (6.8) | Mortality from Day 1 to Day 31 (COVID-19; Total (N = 44)): 2 (4.5) | Patients requiring oxygen therapy (low flow) at (COVID-19; day 1 to Day 7, Mild (N=6)): 33.3% | Patients requiring oxygen therapy at (COVID-19; day 1 to Day 7, Mild (N=6)): 33.3% | Patients requiring non-invasive mechanical ventilation at (COVID-19; [16]): 4.3% | Patients requiring oxygen therapy (high flow) at (COVID-19; [16]): 4.3% | Patients requiring oxygen therapy (low flow) at (COVID-19; [16]): 78.3% | Patients requiring oxygen therapy at (COVID-19; [16]): 78.3% | Patients requiring ICU admission at (COVID-19; day 1 to Day 7, Severe (N=15)): 33.3% | Patients requiring invasive mechanical ventilation and/or ICU admission at (COVID-19; day 1 to Day 7, Severe (N=15)): 33.3%
